Laboratory results published in publication PMC5762338, “A novel orally available Syk/Src/Jak2 inhibitor, SKLB-850, showed potent anti-tumor activities in B cell lymphoma (BCL) models” (Oncotarget, 2017).

Legend:
HBL-1 cells = test: Cell cycle analysis by FCM; format: cell-based, Human; conditions: HBL-1, compared with the control, 18 hours
Method: (§1) FCM was again used to examine the influence of SKLB-850 on the tumor cell cycle.
(§2) Figure 2 Cell cycle analysis of Ramos and HBL-1 cells induced by SKLB-850, R788 DMSO or control Tumor cells were treated by vehicle, R788 or indicated concentrations of compounds. After 18 hours, cell were harvested and stained with AnnexinV-FITC and propidium iodide, and then analyzed by FCM. […] (A and C) Cell cycle analysis of Ramos cells. (B and D) Cell cycle analysis of HBL-1 cells. […] Columns, mean; bars, SD.^##P < 0.01, 850 group versus DMSO or blank control group.
(§3) Ramos and HBL-1 cells cultured in 6-well plates were treated with DMSO, R788, SKLB-850 or medium. After 18 hours, cells were harvested and washed with PBS, fixed with 70% ethanol for 30 min, stained with 200 μL PI (50 μg/mL PI with 1 mg/mL RNase I, and 0.1% Triton X-100) for 30 min. Cell cycle was analyzed with a flow cytometer (BD FACSCalibur, BD, USA).

Ramos cells = test: Cell cycle analysis by FCM; format: cell-based, Human; conditions: 18 hours; for percentages of cells in the G2 phase (in words): compared with the control
Method: as §1, §2, §3

HBL-1 xenograft = HBL-1 xenograft mouse model; format: in vivo, NOD/SCID mice; conditions: HBL-1 model
Method: The in vivo anti-BCL effects of SKLB-850 were investigated in the Ramos and HBL xenograft mouse models with R788 being taken as a positive control. The animals were treated orally once daily for 21 days (Ramos model) or 36 days (HBL-1 model).
All animal studies were conducted according to the guidelines of the Animal Care and Use Committee of Sichuan University (Permit Number: 20121205, Chengdu, Sichuan, China). Ramos and HBL-1 tumor cells were established by subcutaneously injecting 1×10^7 cells (100μL) into the hind flank region of 7–8 week old female NOD/SCID mice (ICR, NOD/SCID). When tumors reached a volume of ∼200 mm^3, mice were randomly divided into different groups (6 per group), and SKLB-850 (40 mg/kg, 20mg/kg) or vehicle (5% DMSO, 25% PEG400, and 70% waters) were given once daily by oral gavage. Tumor growth and body weight were measured every three days or every day during the treatment. Tumor volumes were calculated using the formula as follow: tumor volume (mm^3) = 0.5× length (mm) × width (mm) ^2. Studies were typically terminated when tumors in vehicle treated animals reached an average size of 2,000 mm^3. Solid tumors were removed and processed for immunohistochemical analysis and terminal deoxynucleotidyl transferase-mediated dUTP nick end labeling (TUNEL) assay.

Ramos tumors = test: In situ TUNEL of tumor tissues from the Ramos model; format: in vivo, NOD/SCID mice
Source text: (§4) The ability of inducing apoptosis of SKLB-850 in tumor tissues was examined by TUNEL. […] We then examined apoptotic tumor cells in B-cell lymphoma samples from BCL patients after SKLB-850 treatment by FCM. As shown in Figure 6C and 6F, SKLB-850 induced cell apoptosis (14.10 ± 4.04%), and R788 had the same effect but relatively weak (7.60 ± 0.52%). To better understand the mechanism of antitumor activities in vivo, Ki67 and CD20 in mouse tumor tissues were detected by immunohischemistry; Ki67 was a marker of proliferation in the diagnosis of tumors and CD20 was highly expressed in B cell lymphomas.
Cell apoptosis in Ramos tumors was determined by a TUNEL assay following the manufacturer’s instructions (Promega). The number of TUNEL-positive cells was quantified by fluorescence microscopy and the apoptotic index in 6 random fields per group was counted.

[1] = system: B-cell lymphoma samples from BCL patients; test: Apoptosis of B-cell lymphoma samples from BCL patients, FCM; format: cell-based, Human; conditions: BCL patient samples, 24 hours, concentration not given
Source text: as §4
Figure 6 SKLB-850 inhibited tumor growth by inducing apoptosis of tumor tissues from the Ramos model and BCL samples from patients (A and D) TUNEL immunofluorescent staining of tumor tissues from the Ramos model (n-6 mice per group). (B and E) Immunohistochemical staining analyses of Ki67 and CD20 in tumor tissues from the Ramos model. (C and F) Apoptosis of tumor cells from the BCL patients induced by SKLB-850. Tumor tissues from BCL patients were treated with a series of concentrations of SKLB-850 or R788, and stained with AnnexinV-FITC and propidium iodide, then analyzed with a flow cytometer. […]
Human lymph nodes were collected aseptically from B-cell lymphoma patients (n = 4 for both groups, Supplementary Table 1). […] Cell apoptosis was analyzed with a flow cytometer (BD FACS Calibur, BD, USA).

Row | SMILES | percentages of cells in the G2 phase (in words) (HBL-1 cells) | percentages of cells in the G2 phase (in words) (Ramos cells) | anti-tumor effect (in words) (HBL-1 xenograft; positive control, orally once daily) | apoptosis in tumor tissues (TUNEL) (Ramos tumors) | cell apoptosis [1] | percentage of G2 phase cells (Ramos cells; 0.01μg/mL, control 19.64 ± 0.61 %) | tumor inhibition rate (HBL-1 xenograft; 20 mg/kg orally once daily for 36 days)
1 | COc1cc(Nc2ncc(F)c(Nc3ccc4c(n3)N(COP(=O)(O)O)C(=O)C(C)(C)O4)n2)cc(OC)c1OC [R788, reference compound] | very weak effect | very weak effect | some anti-tumor effect | 242.20 ± 20.00 % of control | 7.60 ± 0.52% |  | 
2 | CN1CCN(c2ccc(Nc3ncc(F)c(Nc4ccc(Cl)cc4C(N)=O)n3)cc2)CC1 [SKLB-850, 5-chloro-2-((5-fluoro-2-((4-(4-methylpiperazin-1-yl)phenyl)amino)pyrimidin-4-yl)amino) benzamide] | significantly increased | significantly increased |  | 406.00 ± 20.70 % of control | 14.10 ± 4.04% | 53.90 ± 2.65% | 80.84% ±4.09%
